The source of these data is ChEMBL document CHEMBL1146540, “Bioactive constituents from three Vismia species” (2003).

In brackets after ≈: the same amount, converted by molar mass. Activity calls are given as the source filed them. The calls are words filed in the database; no cut-off is given here.

Common to all, as to type: functional
One test deals with MCF7. Nature of the test: Cytotoxicity against human MCF7 cells.
For the next test, the system named is NCI-H460. Nature of the test: Cytotoxicity against human H460 cells.
The test system of a further test is SF-268. Nature of the test: Cytotoxicity against human SF268 cells.

`COc1cc2c(c(O)c1/C=C/C(C)C)C(=O)c1c(O)cc(C)cc1C2=O`: the outcome in the test with MCF7, in the test with NCI-H460 and in the test on SF-268 was inactive.

Consider `COc1cc2c(c(O)c1/C=C/C(C)C)C(=O)c1c(O)cc(C)cc1C2C1c2cc(C)cc(O)c2C(=O)c2c1cc(OC)c(/C=C/C(C)C)c2O` (stereo not given), for which the result in the test with MCF7, in the test on NCI-H460 and in the test with SF-268 was inactive.

In the case of `COc1cc2cc3c(c(O)c2c(O)c1/C=C/C(C)C)C(=O)CC(C)(O)C3` (stereo not given) [DEACETYLVISMIONE A], the 50% growth inhibitory concentration (GI50) (in general, the concentration giving 50% growth inhibition) in the test on MCF7 was determined as 1.8 µg/mL (≈ 5.05 µM); with NCI-H460, 1.9 µg/mL (≈ 5.33 µM); with SF-268, 2.2 µg/mL (≈ 6.17 µM).

As for `CC(C)=CCOc1cc(O)c2c(O)c3c(cc2c1)CC(C)(O)CC3=O` (stereo not given) [DEACETYLVISMIONE H], the results for the 50% growth inhibitory concentration (GI50) with MCF7, in the test with NCI-H460 and in the test with SF-268 were 0.4 µg/mL (≈ 1.17 µM), 0.6 µg/mL (≈ 1.75 µM) and 0.6 µg/mL (≈ 1.75 µM), respectively.

Regarding `CC(C)=CCc1c(C)cc2cc3c(c(O)c2c1O)C(=O)C=C(O)C3(CC=C(C)C)CC=C(C)C` [FERRUGININ A], the GI50 in the test on MCF7 came to 5 µg/mL (≈ 10.9 µM); in the test on NCI-H460, 3.3 µg/mL (≈ 7.16 µM); with SF-268, 4.9 µg/mL (≈ 10.6 µM).

Consider `CC(C)=CCC1=C(O)C(CC=C(C)C)(CC=C(C)C)c2cc3cc(C)cc(O)c3c(O)c2C1=O` [FERRUGININ B], for which the 50% growth inhibitory concentration (GI50) was 5 µg/mL (≈ 10.9 µM) with MCF7, 5 µg/mL (≈ 10.9 µM) in the test on NCI-H460 and 4 µg/mL (≈ 8.68 µM) with SF-268.

As for `CC(C)=CCC1=C(O)C(CC=C(C)C)(CC=C(C)C)c2cc3c(CC=C(C)C)c(C)cc(O)c3c(O)c2C1=O` [FERRUGININ C], the GI50 was 4.8 µg/mL (≈ 9.08 µM) with MCF7, 5.4 µg/mL (≈ 10.2 µM) in the test on NCI-H460 and 4 µg/mL (≈ 7.57 µM) with SF-268.

Regarding `CC(C)=CCc1c(C)cc(O)c2c(O)c3c(cc12)C(CC=C(C)C)(CC=C(C)C)C(O)=CC3=O` [HARUNGANIN], the GI50 with MCF7 was 6 µg/mL (≈ 13 µM); in the test with NCI-H460, 6.4 µg/mL (≈ 13.9 µM); in the test with SF-268, 6 µg/mL (≈ 13 µM).

In the case of `CC(C)=CCC1(CC=C(C)C)C(O)=CC(=O)c2c1cc1cc(C)cc(O)c1c2O` [VISMIN], the GI50 was determined as 5.2 µg/mL (≈ 13.2 µM) with MCF7, 7.3 µg/mL (≈ 18.6 µM) with NCI-H460 and 5.7 µg/mL (≈ 14.5 µM) with SF-268.

For the compound `COc1cc2cc3c(c(O)c2c2c1C=CC(C)(C)O2)C(=O)CC(C)(O)C3` (stereo not given) [VISMIONE B], the GI50 came to 1.6 µg/mL (≈ 4.51 µM) in the test on MCF7, 2.8 µg/mL (≈ 7.9 µM) in the test on NCI-H460 and 2.5 µg/mL (≈ 7.05 µM) with SF-268.
